Test results: US7709636B2, “Pyrazole sulfonylurea compound and herbicide” (Nissan Chemical Industries, Ltd., priority 2004, dated 2010)

Columns and labels:
Ambrosia elatior [1] = test: Herbicidal effect test by soil treatment; type: in vivo; details: 1.6 g/a, 3 weeks after treatment
Method in brief: (§1)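 Pre-emergence soil application: wettable powder formulation, water-diluted to set dose, sprayed evenly over soil surface after sowing; seeds under ~1.5 cm sterilized diluvial soil. Effect rated at 3 wk by criteria scale.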

Setaria viridis [2] = test: Herbicidal effect test by soil treatment; type: in vivo; details: 1.6 g/a, 3 weeks after treatment
Method in brief: as §1

Digitaria adscendes [3] = test: Herbicidal effect test by soil treatment; type: in vivo; details: 1.6 g/a, 3 weeks after treatment
Method in brief: as §1

soybean (Glycine max) [4] = test: Herbicidal effect test by soil treatment; type: in vivo; details: 1.6 g/a, 3 weeks after treatment
Method in brief: as §1

Chenopodium album [5] = test: Herbicidal effect test by soil treatment; type: in vivo; details: 1.6 g/a, 3 weeks after treatment
Method in brief: as §1

Polygonum blumei [6] = test: Herbicidal effect test by soil treatment; type: in vivo; details: 1.6 g/a, 3 weeks after treatment
Method in brief: as §1

Echinochloa crus-galli [7] = test: Herbicidal effect test by soil treatment; type: in vivo; details: 1.6 g/a, 3 weeks after treatment
Method in brief: as §1

Stellaria media [8] = test: Herbicidal effect test by soil treatment; type: in vivo; details: 1.6 g/a, 3 weeks after treatment
Method in brief: as §1

Amaranthus retroflexus [9] = test: Herbicidal effect test by soil treatment; type: in vivo; details: 1.6 g/a, 3 weeks after treatment
Method in brief: as §1

Avena fatua [10] = test: Herbicidal effect test by soil treatment; type: in vivo; details: 1.6 g/a, 3 weeks after treatment
Method in brief: as §1

Beta vulgaris (beet) [11] = test: Herbicidal effect test by soil treatment; type: in vivo; details: 1.6 g/a, 3 weeks after treatment
Method in brief: as §1

Abutilon avicennae [12] = test: Herbicidal effect test by soil treatment; type: in vivo; details: 1.6 g/a, 3 weeks after treatment
Method in brief: as §1

Black-grass [13] = test: Herbicidal effect test by soil treatment; type: in vivo; details: 1.6 g/a, 3 weeks after treatment
Method in brief: as §1

corn (Zea mays) [14] = test: Herbicidal effect test by soil treatment; type: in vivo; details: 1.6 g/a, 3 weeks after treatment
Method in brief: as §1

[15] = test system: Triticum aestivum (wheat); test: Herbicidal effect test by soil treatment; type: in vivo; details: 1.6 g/a, 3 weeks after treatment
Method in brief: as §1

Echinochloa crus-galli [16] = test: Herbicidal effect test in submerged condition by treatment during weed-growth stage (1); type: in vivo; details: 0.64 g/a, treated at 1st to 2nd leaf stage, 3 weeks after treatment
Method in brief: (§2)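 Paddy-soil pots flooded to 4 cm water depth were sown and grown in a greenhouse at 25 to 30° C until weeds reached 1st to 2nd leaf stage. A wettable powder diluted in water to a predetermined formulation amount was applied to the water surface. Herbicidal effect was scored 3 weeks after treatment against set criteria.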

Monochoria vaginalis = test: as above; type: in vivo; details: 0.64 g/a, treated at 1st to 2nd leaf stage, 3 weeks after treatment
Method in brief: as §2

Scirpus juncoides = test: as above; type: in vivo; details: 0.64 g/a, treated at 1st to 2nd leaf stage, 3 weeks after treatment
Method in brief: as §2

Ambrosia elatior [17] = test: Herbicidal effect test by foliage treatment; type: in vivo; details: 1.6 g/a; foliage treatment after growth of 14 days; 3 weeks after treatment
Method in brief: (§3)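 Post-emergence foliar spray: plants raised 14 d in greenhouse (25–30° C) from seed in sterilized diluvial soil, sprayed with diluted wettable powder formulation, injury rated visually at 3 wk.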

Setaria viridis [18] = test: Herbicidal effect test by foliage treatment; type: in vivo; details: 1.6 g/a; foliage treatment after growth of 14 days; 3 weeks after treatment
Method in brief: as §3

Digitaria adscendes [19] = test: Herbicidal effect test by foliage treatment; type: in vivo; details: 1.6 g/a; foliage treatment after growth of 14 days; 3 weeks after treatment
Method in brief: as §3

soybean (Glycine max) [20] = test: Herbicidal effect test by foliage treatment; type: in vivo; details: 1.6 g/a; foliage treatment after growth of 14 days; 3 weeks after treatment
Method in brief: as §3

Chenopodium album [21] = test: Herbicidal effect test by foliage treatment; type: in vivo; details: 1.6 g/a; foliage treatment after growth of 14 days; 3 weeks after treatment
Method in brief: as §3

Polygonum blumei [22] = test: Herbicidal effect test by foliage treatment; type: in vivo; details: 1.6 g/a; foliage treatment after growth of 14 days; 3 weeks after treatment
Method in brief: as §3

Echinochloa crus-galli [23] = test: Herbicidal effect test by foliage treatment; type: in vivo; details: 1.6 g/a; foliage treatment after growth of 14 days; 3 weeks after treatment
Method in brief: as §3

Stellaria media [24] = test: Herbicidal effect test by foliage treatment; type: in vivo; details: 1.6 g/a; foliage treatment after growth of 14 days; 3 weeks after treatment
Method in brief: as §3

Amaranthus retroflexus [25] = test: Herbicidal effect test by foliage treatment; type: in vivo; details: 1.6 g/a; foliage treatment after growth of 14 days; 3 weeks after treatment
Method in brief: as §3

Avena fatua [26] = test: Herbicidal effect test by foliage treatment; type: in vivo; details: 1.6 g/a; foliage treatment after growth of 14 days; 3 weeks after treatment
Method in brief: as §3

Beta vulgaris (beet) [27] = test: Herbicidal effect test by foliage treatment; type: in vivo; details: 1.6 g/a; foliage treatment after growth of 14 days; 3 weeks after treatment
Method in brief: as §3

Abutilon avicennae [28] = test: Herbicidal effect test by foliage treatment; type: in vivo; details: 1.6 g/a; foliage treatment after growth of 14 days; 3 weeks after treatment
Method in brief: as §3

Black-grass [29] = test: Herbicidal effect test by foliage treatment; type: in vivo; details: 1.6 g/a; foliage treatment after growth of 14 days; 3 weeks after treatment
Method in brief: as §3

corn (Zea mays) [30] = test: Herbicidal effect test by foliage treatment; type: in vivo; details: 1.6 g/a; foliage treatment after growth of 14 days; 3 weeks after treatment
Method in brief: as §3

[31] = test system: Triticum aestivum (wheat); test: Herbicidal effect test by foliage treatment; type: in vivo; details: 1.6 g/a; foliage treatment after growth of 14 days; 3 weeks after treatment
Method in brief: as §3

direct sown rice [32] = test: Herbicidal effect test by foliage treatment; type: in vivo, Oryza sativa; details: 1.6 g/a; foliage treatment after growth of 14 days; 3 weeks after treatment
Method in brief: as §3

direct sown rice [33] = test: Herbicidal effect test by soil treatment; type: in vivo, Oryza sativa; details: 1.6 g/a, 3 weeks after treatment
Method in brief: as §1

COc1cc(OC)nc(NC(=O)NS(=O)(=O)c2c(C3=NOCC(C)(CI)O3)c(Cl)nn2C)n1 (centres unmarked) [Compound 4, N-((4,6-dimethoxypyrimidin-2-yl)aminocarbonyl)-3-chloro-4-(5-iodomethyl-5-methyl-5H,6H-1,4,2-dioxadin-3-yl)-1-methylpyrazole-5-sulfonamide]
herbicidal effect, I: Ambrosia elatior (Ambrosia elatior [1]): 2 (Herbicidal rate 20% or more and less than 40%)
herbicidal effect, E: Setaria viridis (Setaria viridis [2]): 0 (Herbicidal rate 5% or less (little effect))
herbicidal effect, D: Digitaria adscendes (Digitaria adscendes [3]): 0 (Herbicidal rate 5% or less (little effect))
herbicidal effect, c: soybean (Glycine max) (soybean (Glycine max) [4]): 0 (Herbicidal rate 5% or less (little effect))
herbicidal effect, K: Chenopodium album (Chenopodium album [5]): 1 (Herbicidal rate 5% or more and less than 20%)
herbicidal effect, L: Polygonum blumei (Polygonum blumei [6]): 0 (Herbicidal rate 5% or less (little effect))
herbicidal effect, A: Echinochloa crus-galli (Echinochloa crus-galli [7]): 0 (Herbicidal rate 5% or less (little effect))
herbicidal effect, M: Stellaria media (Stellaria media [8]): 1 (Herbicidal rate 5% or more and less than 20%)
herbicidal effect, J: Amaranthus retroflexus (Amaranthus retroflexus [9]): 0 (Herbicidal rate 5% or less (little effect))
herbicidal effect, F: Avena fatua (Avena fatua [10]): 0 (Herbicidal rate 5% or less (little effect))
herbicidal effect, f: Beta vulgaris (beet) (Beta vulgaris (beet) [11]): 0 (Herbicidal rate 5% or less (little effect))
herbicidal effect, H: Abutilon avicennae (Abutilon avicennae [12]): 0 (Herbicidal rate 5% or less (little effect))
herbicidal effect, G: Black-grass (Black-grass [13]): 0 (Herbicidal rate 5% or less (little effect))
herbicidal effect, b: corn (Zea mays) (corn (Zea mays) [14]): 0 (Herbicidal rate 5% or less (little effect))
herbicidal effect, e: Triticum aestivum (wheat) [15]: 0 (Herbicidal rate 5% or less (little effect))
herbicidal effect, A: Echinochloa crus-galli (Echinochloa crus-galli [16]): 0 (Herbicidal rate 5% or less (little effect))
herbicidal effect, C: Monochoria vaginalis (Monochoria vaginalis): 3 (Herbicidal rate 40% or more and less than 70%)
herbicidal effect, B: Scirpus juncoides (Scirpus juncoides): 3 (Herbicidal rate 40% or more and less than 70%)
herbicidal effect, I: Ambrosia elatior (Ambrosia elatior [17]): 3 (Herbicidal rate 40% or more and less than 70%)
herbicidal effect, E: Setaria viridis (Setaria viridis [18]): 0 (Herbicidal rate 5% or less (little effect))
herbicidal effect, D: Digitaria adscendes (Digitaria adscendes [19]): 0 (Herbicidal rate 5% or less (little effect))
herbicidal effect, c: soybean (Glycine max) (soybean (Glycine max) [20]): 3 (Herbicidal rate 40% or more and less than 70%)
herbicidal effect, K: Chenopodium album (Chenopodium album [21]): 4 (Herbicidal rate 70% or more and less than 90%)
herbicidal effect, L: Polygonum blumei (Polygonum blumei [22]): 3 (Herbicidal rate 40% or more and less than 70%)
herbicidal effect, A: Echinochloa crus-galli (Echinochloa crus-galli [23]): 0 (Herbicidal rate 5% or less (little effect))
herbicidal effect, M: Stellaria media (Stellaria media [24]): 2 (Herbicidal rate 20% or more and less than 40%)
herbicidal effect, J: Amaranthus retroflexus (Amaranthus retroflexus [25]): 2 (Herbicidal rate 20% or more and less than 40%)
herbicidal effect, F: Avena fatua (Avena fatua [26]): 0 (Herbicidal rate 5% or less (little effect))
herbicidal effect, f: Beta vulgaris (beet) (Beta vulgaris (beet) [27]): 1 (Herbicidal rate 5% or more and less than 20%)
herbicidal effect, H: Abutilon avicennae (Abutilon avicennae [28]): 4 (Herbicidal rate 70% or more and less than 90%)
herbicidal effect, G: Black-grass (Black-grass [29]): 0 (Herbicidal rate 5% or less (little effect))
herbicidal effect, b: corn (Zea mays) (corn (Zea mays) [30]): 0 (Herbicidal rate 5% or less (little effect))
herbicidal effect, e: Triticum aestivum (wheat) [31]: 0 (Herbicidal rate 5% or less (little effect))
herbicidal effect, d: direct sown rice (direct sown rice [32]): 0 (Herbicidal rate 5% or less (little effect))
herbicidal effect, d: direct sown rice (direct sown rice [33]): 0 (Herbicidal rate 5% or less (little effect))
